Experimental data published in patent US20220135591A1, “HETEROCYCLIC COMPOUNDS AS INHIBITORS OF MONOACYLGLYCEROL LIPASE (MAGL)” (Hoffmann-La Roche Inc., priority 2019, published 2022).

Target: T1, MAGL (Homo sapiens, UniProt Q99685)
T1 sequence (Q99685 1-303): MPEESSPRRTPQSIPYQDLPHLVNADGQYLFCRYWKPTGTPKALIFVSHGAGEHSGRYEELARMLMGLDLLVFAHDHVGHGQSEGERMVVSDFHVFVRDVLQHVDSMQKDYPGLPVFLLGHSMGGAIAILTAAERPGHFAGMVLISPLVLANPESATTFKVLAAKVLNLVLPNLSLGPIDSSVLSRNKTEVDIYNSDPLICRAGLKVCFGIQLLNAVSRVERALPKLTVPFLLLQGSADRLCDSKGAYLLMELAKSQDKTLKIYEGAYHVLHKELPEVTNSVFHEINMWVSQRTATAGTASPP
Test: 2-AG assay: MAGL inhibitory activity by hydrolysis of 2-arachidonoylglycerol to arachidonic acid, mass spectrometry
Format: biochemical
Conditions: 2-AG assay (values marked [b])
Summary of the method: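 Human MAGL […] was preincubated 15 min at RT with compound ([…], 3-fold steps) in 50 mM Tris, 1 mM EDTA, 0.01% Tween. 2-AG (8 μM) was then added for 30 min at RT. Arachidonic acid was quantified by RapidFire SPE–triple quadrupole MS in negative ESI as its ratio to a d8-arachidonic acid standard.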

Compound	IC50
Cc1cc(C(=O)N2CCN(c3nc4nc(Cl)ccc4o3)CC2)cnc1-c1cnn(C(C)(C)C)c1 [Example 190, [6-(1-tert-butylpyrazol-4-yl)-5-methylpyridin-3-yl]-[4-(5-chloro-[1,3]oxazolo[4,5-b]pyridin-2-yl)piperazin-1-yl]methanone]	46 nM
Cc1ccc2oc(N3CCN(C(=O)c4cnc(-c5cnn(C(C)(C)C)c5)c(C)c4)CC3)nc2n1 [Example 191, [6-(1-tert-butylpyrazol-4-yl)-5-methylpyridin-3-yl]-[4-(5-methyl-[1,3]oxazolo[4,5-b]pyridin-2-yl)piperazin-1-yl]methanone]	98 nM
Cc1cc(C(=O)N2CCN(c3nc4nc(Cl)ccc4o3)CC2)ccc1-c1cn(CC(C)(C)C)nn1 [Example 231, (4-(5-chlorooxazolo[4,5-b]pyridin-2-yl)piperazin-1-yl)(3-methyl-4-(1-neopentyl-1H-1,2,3-triazol-4-yl)phenyl)methanone]	4 nM
Cc1cc(C(=O)N2CCN(c3nc4nc(Cl)ccc4o3)CC2)ccc1-c1cnn(CC(C)(C)C)n1 [Example 232, (4-(5-chlorooxazolo[4,5-b]pyridin-2-yl)piperazin-1-yl)(3-methyl-4-(2-neopentyl-2H-1,2,3-triazol-4-yl)phenyl)methanone]	1 nM
CC(C)(C)Cn1cc(-c2ccc(C(=O)N3CCN(c4nc5nc(Cl)ccc5o4)CC3)cc2C#N)nn1 [Example 233, 5-(4-(5-chlorooxazolo[4,5-b]pyridin-2-yl)piperazine-1-carbonyl)-2-(1-neopentyl-1H-1,2,3-triazol-4-yl)benzonitrile]	20 nM
CC(C)(C)Cn1ncc(-c2ccc(C(=O)N3CCN(c4nc5nc(Cl)ccc5o4)CC3)cc2C#N)n1 [Example 234, 5-(4-(5-chlorooxazolo[4,5-b]pyridin-2-yl)piperazine-1-carbonyl)-2-(2-neopentyl-2H-1,2,3-triazol-4-yl)benzonitrile]	10 nM
Cc1ccc2oc(N3CCN(C(=O)c4ccc(-c5cn(CC(C)(C)C)nn5)c(C#N)c4)CC3)nc2n1 [Example 235, 5-(4-(5-methyloxazolo[4,5-b]pyridin-2-yl)piperazine-1-carbonyl)-2-(1-neopentyl-1H-1,2,3-triazol-4-yl)benzonitrile]	104 nM
Cc1ccc2oc(N3CCN(C(=O)c4ccc(-c5cnn(CC(C)(C)C)n5)c(C#N)c4)CC3)nc2n1 [Example 236, 5-(4-(5-methyloxazolo[4,5-b]pyridin-2-yl)piperazine-1-carbonyl)-2-(2-neopentyl-2H-1,2,3-triazol-4-yl)benzonitrile]	33 nM
COc1cc(C(=O)N2CCN(c3nc4nc(Cl)ccc4o3)CC2)ccc1-c1cn(CC(C)(C)C)nn1 [Example 237, (4-(5-chlorooxazolo[4,5-b]pyridin-2-yl)piperazin-1-yl)(3-methoxy-4-(1-neopentyl-1H-1,2,3-triazol-4-yl)phenyl)methanone]	7 nM
COc1cc(C(=O)N2CCN(c3nc4nc(Cl)ccc4o3)CC2)ccc1-c1cnn(CC(C)(C)C)n1 [Example 238, (4-(5-chlorooxazolo[4,5-b]pyridin-2-yl)piperazin-1-yl)(3-methoxy-4-(2-neopentyl-2H-1,2,3-triazol-4-yl)phenyl)methanone]	1 nM
COc1cc(C(=O)N2CCN(c3nc4nc(C)ccc4o3)CC2)ccc1-c1cn(CC(C)(C)C)nn1 [Example 239, (3-methoxy-4-(1-neopentyl-1H-1,2,3-triazol-4-yl)phenyl)(4-(5-methyloxazolo[4,5-b]pyridin-2-yl)piperazin-1-yl)methanone]	13 nM
COc1cc(C(=O)N2CCN(c3nc4nc(C)ccc4o3)CC2)ccc1-c1cnn(CC(C)(C)C)n1 [Example 240, (3-methoxy-4-(2-neopentyl-2H-1,2,3-triazol-4-yl)phenyl)(4-(5-methyloxazolo[4,5-b]pyridin-2-yl)piperazin-1-yl)methanone]	2 nM
CC(C)(C)Cn1cc(-c2ncc(C(=O)N3CCN(c4nc5nc(Cl)ccc5o4)CC3)cc2F)nn1 [Example 241, (4-(5-chlorooxazolo[4,5-b]pyridin-2-yl)piperazin-1-yl)(5-fluoro-6-(1-neopentyl-1H-1,2,3-triazol-4-yl)pyridin-3-yl)methanone]	27 nM
CC(C)(C)Cn1nncc1-c1ncc(C(=O)N2CCN(c3nc4nc(Cl)ccc4o3)CC2)cc1F [Example 242, (4-(5-chlorooxazolo[4,5-b]pyridin-2-yl)piperazin-1-yl)(5-fluoro-6-(1-neopentyl-1H-1,2,3-triazol-5-yl)pyridin-3-yl)methanone]	8410 nM
CC(C)(C)Cn1ncc(-c2ncc(C(=O)N3CCN(c4nc5nc(Cl)ccc5o4)CC3)cc2F)n1 [Example 243, (4-(5-chlorooxazolo[4,5-b]pyridin-2-yl)piperazin-1-yl)(5-fluoro-6-(2-neopentyl-2H-1,2,3-triazol-4-yl)pyridin-3-yl)methanone]	25 nM
Cc1ccc2oc(N3CCN(C(=O)c4cnc(-c5cn(CC(C)(C)C)nn5)c(F)c4)CC3)nc2n1 [Example 244, (5-fluoro-6-(1-neopentyl-1H-1,2,3-triazol-4-yl)pyridin-3-yl)(4-(5-methyloxazolo[4,5-b]pyridin-2-yl)piperazin-1-yl)methanone]	50 nM
Cc1ccc2oc(N3CCN(C(=O)c4cnc(-c5cnn(CC(C)(C)C)n5)c(F)c4)CC3)nc2n1 [Example 245, (5-fluoro-6-(2-neopentyl-2H-1,2,3-triazol-4-yl)pyridin-3-yl)(4-(5-methyloxazolo[4,5-b]pyridin-2-yl)piperazin-1-yl)methanone]	57 nM
Cc1ccc2oc(N3CCN(C(=O)c4cnc(-c5cnnn5CC(C)(C)C)c(F)c4)CC3)nc2n1 [Example 246, (5-fluoro-6-(1-neopentyl-1H-1,2,3-triazol-5-yl)pyridin-3-yl)(4-(5-methyloxazolo[4,5-b]pyridin-2-yl)piperazin-1-yl)methanone]	1300 nM
Cc1cc(C(=O)N2CCN(c3nc4nc(Cl)ccc4o3)CC2)cnc1-c1cnn(CC(C)(C)C)c1 [Example 247, [4-(5-chloro-[1,3]oxazolo[4,5-b]pyridin-2-yl)piperazin-1-yl]-[6-[1-(2,2-dimethylpropyl)pyrazol-4-yl]-5-methylpyridin-3-yl]methanone]	7 nM
Cc1ccc2oc(N3CCN(C(=O)c4cnc(-c5cnn(CC(C)(C)C)c5)c(C)c4)CC3)nc2n1 [Example 248, [6-[1-(2,2-dimethylpropyl)pyrazol-4-yl]-5-methylpyridin-3-yl]-[4-(5-methyl-[1,3]oxazolo[4,5-b]pyridin-2-yl)piperazin-1-yl]methanone]	14 nM
O=C(N1CCN(c2nc3nc(Cl)ccc3o2)CC1)N1CC(C#Cc2c(Cl)cccc2Cl)C1 [Example 249, (4-(5-chlorooxazolo[4,5-b]pyridin-2-yl)piperazin-1-yl)(3-((2,6-dichlorophenyl)ethynyl)azetidin-1-yl)methanone]	22 nM
O=C(N1CCN(c2nc3nc(Cl)ccc3o2)CC1)N1CC(C#Cc2ccc(F)cc2Cl)C1 [Example 250, [3-[2-(2-chloro-4-fluorophenyl)ethynyl]azetidin-1-yl]-[4-(5-chloro-[1,3]oxazolo[4,5-b]pyridin-2-yl)piperazin-1-yl]methanone]	25 nM
Cc1ccc2oc(N3CCN(C(=O)N4CC(COc5ccc(F)cc5Cl)C4)CC3)nc2n1 [Example 252, [3-[(2-chloro-4-fluorophenoxy)methyl]azetidin-1-yl]-[4-(5-methyl-[1,3]oxazolo[4,5-b]pyridin-2-yl)piperazin-1-yl]methanone]	1240 nM
O=C(NC1CN(C(=O)N2CCN(c3nc4nc(Cl)ccc4o3)CC2)C1)c1ccc(F)cc1Cl [Example 253, 2-chloro-N-[1-[4-(5-chloro-[1,3]oxazolo[4,5-b]pyridin-2-yl)piperazine-1-carbonyl]azetidin-3-yl]-4-fluorobenzamide]	≥ 12500 nM
Cc1ccc2oc(N3CCN(C(=O)N4CC(NC(=O)c5ccc(F)cc5Cl)C4)CC3)nc2n1 [Example 254, 2-chloro-4-fluoro-N-[1-[4-(5-methyl-[1,3]oxazolo[4,5-b]pyridin-2-yl)piperazine-1-carbonyl]azetidin-3-yl]benzamide]	≥ 12500 nM
O=C(Nc1ccc(F)cc1Cl)C1CN(C(=O)N2CCN(c3nc4nc(Cl)ccc4o3)CC2)C1 [Example 255, N-(2-chloro-4-fluorophenyl)-1-[4-(5-chloro-[1,3]oxazolo[4,5-b]pyridin-2-yl)piperazine-1-carbonyl]azetidine-3-carboxamide]	≥ 12500 nM
Cc1ccc2oc(N3CCN(C(=O)N4CC(C(=O)Nc5ccc(F)cc5Cl)C4)CC3)nc2n1 [Example 256, N-(2-chloro-4-fluorophenyl)-1-[4-(5-methyl-[1,3]oxazolo[4,5-b]pyridin-2-yl)piperazine-1-carbonyl]azetidine-3-carboxamide]	≥ 12500 nM
Cc1cc(C(=O)N2CCN(c3nc4nc(Cl)ccc4o3)CC2)ccc1-c1cn(C(C)(C)C)nn1 [Example 257, (4-(1-(tert-butyl)-1H-1,2,3-triazol-4-yl)-3-methylphenyl)(4-(5-chlorooxazolo[4,5-b]pyridin-2-yl)piperazin-1-yl)methanone]	58 nM
COC(C)(C)Cn1cc(-c2ccc(C(=O)N3CCN(c4nc5nc(Cl)ccc5o4)CC3)cc2)nn1 [Example 258, [4-(5-chlorooxazolo[4,5-b]pyridin-2-yl)piperazin-1-yl]-[4-[1-(2-methoxy-2-methyl-propyl)triazol-4-yl]phenyl]methanone]	31 nM
CC(C)Cc1nnc(-c2ccc(C(=O)N3CCN(c4nc5nc(Cl)ccc5o4)CC3)cc2)o1 [Example 267, (4-(5-chlorooxazolo[4,5-b]pyridin-2-yl)piperazin-1-yl)(4-(5-isobutyl-1,3,4-oxadiazol-2-yl)phenyl)methanone]	69 nM
